According to patent publication US20230256095A1, “DYES FOR USE IN A METHOD OF TREATMENT OF VITREOUS OPACITY-RELATED DISEASES” (UNIVERSITEIT GENT, priority 2020, published 2023):

Target: T1, type I collagen fibers (Rattus norvegicus, UniProt P02454+P02466)
T1 construct: type I collagen from the rat tail; purchased GIBCO; host or cells: rat tail (tissue-derived)
Experiment: Photo-ablation of artificial floaters with nanosecond laser
Conditions: 0.1 mg/ml as printed
Description: Collagen fibers were prepared from type I collagen from the rat tail (GIBCO; concentration of 3 mg/ml) as described in Sauvage et al., 2019, ACS Nano, 13, 8401-8416. 5 ml of PBS was pipetted in a 15 ml falcon tube. 330 μL of the PBS solution was replaced by 330 μL collagen type I and the solution was vortexed. Sodium hydroxide (0.1 M) (VWR, Radnor, USA) was added to the acid solution of collagen to adjust pH to 7.4. The solution was vortexed again and placed for one hour in the incubator at 37° C. The final concentration of the collagen was 0.2 mg/ml.
First, dark-field microscopy imaging was performed to locate and align the nanosecond laser (Opolette HE 355 LD, OPOTEK Inc., CA, USA) on the artificial collagen fibers in the sample. Samples of either artificial or human opacities treated with TB, ICG and ICG nanoparticles were then illuminated with the laser (<7 ns). The wavelength of the laser light was 561 nm and the energy was set at ±800 μJ. A beam expander (#GBE05-A, Thorlabs) combined with iris diaphragm (#D37SZ, Thorlabs) were used to adjust the diameter of the laser beam to 150 μm (so that 800 μJ corresponded to a laser fluence of 4.5 J/cm^2). The laser pulse energy was monitored by an energy meter (J-25 MB-HE&LE, Energy Max-USB/RS sensors, Coherent) synchronized with the pulsed-laser. The set-up was made in such way to illuminate the sample shot by shot. Videos of the sample were made during illumination with NIS software. Same experiments were performed with human opacities Comparison Between Free ICG, PAH-ICG NPs and HSA-ICG NPs in Water and Bovine Vitreous.

T1 sequence (P02454 152-1207 limits assumed): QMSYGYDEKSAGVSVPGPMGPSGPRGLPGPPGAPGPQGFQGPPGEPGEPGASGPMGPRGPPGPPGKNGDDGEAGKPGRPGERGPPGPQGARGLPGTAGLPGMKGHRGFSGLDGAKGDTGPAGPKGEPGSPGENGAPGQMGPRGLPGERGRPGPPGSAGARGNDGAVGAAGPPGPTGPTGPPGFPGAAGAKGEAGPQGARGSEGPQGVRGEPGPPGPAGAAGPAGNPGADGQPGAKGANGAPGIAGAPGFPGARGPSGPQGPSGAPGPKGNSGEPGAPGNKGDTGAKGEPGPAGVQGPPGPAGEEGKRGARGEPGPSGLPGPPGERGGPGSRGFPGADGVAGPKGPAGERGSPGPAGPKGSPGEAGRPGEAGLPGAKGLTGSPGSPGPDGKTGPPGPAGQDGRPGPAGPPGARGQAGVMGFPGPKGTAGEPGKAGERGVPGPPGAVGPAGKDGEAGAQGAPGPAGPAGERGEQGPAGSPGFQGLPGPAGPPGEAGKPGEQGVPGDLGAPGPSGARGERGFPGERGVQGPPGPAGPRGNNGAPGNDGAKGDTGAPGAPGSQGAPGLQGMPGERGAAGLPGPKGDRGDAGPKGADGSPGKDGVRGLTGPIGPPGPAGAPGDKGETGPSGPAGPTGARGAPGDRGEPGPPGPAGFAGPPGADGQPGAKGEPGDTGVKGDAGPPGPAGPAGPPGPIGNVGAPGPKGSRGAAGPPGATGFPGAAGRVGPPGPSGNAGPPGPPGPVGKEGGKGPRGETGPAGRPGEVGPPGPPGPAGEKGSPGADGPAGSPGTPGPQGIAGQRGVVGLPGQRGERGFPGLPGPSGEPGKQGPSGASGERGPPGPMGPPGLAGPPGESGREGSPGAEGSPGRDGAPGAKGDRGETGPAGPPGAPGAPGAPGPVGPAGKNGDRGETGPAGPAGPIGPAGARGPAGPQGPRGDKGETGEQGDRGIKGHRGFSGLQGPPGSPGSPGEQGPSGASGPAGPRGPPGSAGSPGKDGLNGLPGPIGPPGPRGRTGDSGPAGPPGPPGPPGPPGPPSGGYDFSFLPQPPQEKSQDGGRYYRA
T1 sequence (P02466 86-1125 limits assumed): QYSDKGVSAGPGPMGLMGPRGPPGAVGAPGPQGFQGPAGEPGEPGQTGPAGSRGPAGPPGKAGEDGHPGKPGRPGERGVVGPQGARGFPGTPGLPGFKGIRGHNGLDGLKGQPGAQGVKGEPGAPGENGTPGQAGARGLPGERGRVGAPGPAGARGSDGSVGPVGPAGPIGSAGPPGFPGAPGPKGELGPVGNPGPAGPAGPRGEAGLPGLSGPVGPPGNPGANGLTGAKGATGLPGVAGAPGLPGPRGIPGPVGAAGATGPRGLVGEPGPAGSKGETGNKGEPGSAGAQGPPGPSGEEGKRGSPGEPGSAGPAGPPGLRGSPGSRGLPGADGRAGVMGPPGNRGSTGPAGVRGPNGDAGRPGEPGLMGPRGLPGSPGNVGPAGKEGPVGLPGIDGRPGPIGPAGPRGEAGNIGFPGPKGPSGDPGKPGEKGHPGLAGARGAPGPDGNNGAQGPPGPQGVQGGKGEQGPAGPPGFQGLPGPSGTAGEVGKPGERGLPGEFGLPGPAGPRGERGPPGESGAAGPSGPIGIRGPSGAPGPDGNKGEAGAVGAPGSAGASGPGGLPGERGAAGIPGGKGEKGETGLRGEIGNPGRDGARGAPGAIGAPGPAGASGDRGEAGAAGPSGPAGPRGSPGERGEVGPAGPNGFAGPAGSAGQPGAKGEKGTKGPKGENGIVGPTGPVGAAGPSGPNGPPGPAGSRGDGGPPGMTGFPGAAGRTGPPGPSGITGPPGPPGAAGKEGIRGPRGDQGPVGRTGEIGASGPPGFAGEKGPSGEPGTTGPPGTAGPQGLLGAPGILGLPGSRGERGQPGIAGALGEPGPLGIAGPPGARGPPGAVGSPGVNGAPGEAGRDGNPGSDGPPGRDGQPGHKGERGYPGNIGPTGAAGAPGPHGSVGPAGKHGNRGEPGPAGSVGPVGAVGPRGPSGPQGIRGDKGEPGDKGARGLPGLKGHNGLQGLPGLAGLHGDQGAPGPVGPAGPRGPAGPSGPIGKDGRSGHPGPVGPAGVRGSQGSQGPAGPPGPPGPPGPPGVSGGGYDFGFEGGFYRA

Compound: Cc1cc(-c2ccc(/N=N/c3c(S(=O)(=O)O)cc4cc(S(=O)(=O)O)cc(N)c4c3O)c(C)c2)ccc1/N=N/c1c(S(=O)(=O)O)cc2cc(S(=O)(=O)O)cc(N)c2c1O [free TB, Trypan Blue]
- binding and destruction of type I collagen fibers: can bind and efficiently destroy type I collagen fibers
